The structures appear in SMILES notation.

Experiment [1] concerns A431 cells. Kind of experiment: A431 cell growth inhibition assay (MTT assay). In kind it is cell-based. The following applies: Homo sapiens; for EC50: A-431, 72 hours (Table 11); for inhibition at 3 µM: A-431, concentration of 3 μM, 72 hours, read-out: Inhibition Percent (%). How it is done:
A431 Cell Growth Inhibition Assay (MTT Assay)
A431, an epidermoid carcinoma cell line; The Cell Bank, Committee on Type Culture Collection Chinese Academy of Science, Shanghai.
Mix prepared medium DMEM and F12 in the proportion of 1:1, then add FBS to a final concentration of 10%.
Dissolved the dried compound sample with 100% DMSO to 2 mM. Then diluted the dissolved compound to 20 μM with cell complete growth medium.
Prior to the assay, cultured the A431 to logarithmic phase, and then removed medium from cell monolayers and wash the cells once with sterilized PBS. Aspriated the PBS and added 2 mL trypsin solution to cover the cell growth surface, removed 1 mL trypsin solution after soaking about 1 minute. Transferred the cell-culture plate to CO2 incubator; incubated at 37° C. for 8 minutes to allow cells to dissociate. After the cells detached, added 4 mL complete growth medium containing FBS with pipette to disperse them off and mixed gently to obtain a homogeneous cell suspension. Aspirated some of the cell suspension to a sterilized polypropylene tube, and determined the cell concentration by counting in a hematocytometer chamber under a microscope. Adjusted the cell concentration with growth medium to obtain 2.5×10^4 cells per milliliter.
Added 100 μL adjusted cell suspension to the 96-well cell-culture plate and occasionally mixed the cell suspension during the seeding process. After seeding cells, incubated the plate at 37° C. overnight with 5% CO2 in the CO2 incubator for cell attachment.
After the cell attachment, added 100 μL prepared compound solutions to the corresponding wells (add PBS to the ambient wells of the plate). The final compound concentrations ranged from 10 μM to 1.52 nM. Incubated the plate at 37° C. with 5% CO2 for 72 hours in the CO2 incubator.
After the exposure to the compound, removed the cell culture supernatant. Then added 100 μL 0.5 mg/mL MTT solution which dissolved in the growth medium without FBS. Incubated the plate at 37° C. with 5% CO2 for another 4 hours to allow the MTT reaction to proceed.
After the MTT reaction, discarded the MTT reaction solution. Added 100 μL DMSO to each well, and the plate was agitated on the plate shaker for several minutes to dissolve the formazan. Then, detected the absorbance at 490 nm using microplate reader.
(In general: Tetrazolium assays rely on reduction of a dye to a coloured formazan, in cell work by metabolically active cells.)

For experiment [2], the system named is BT474 cells. In words: BT-474 cell growth inhibition assay (SRB assay). The following applies: Homo sapiens, concentration of 3 μM, 72 h, read-out: Inhibition Percent (%). In kind it is cell-based. As for the experimental part: BT-474 Cell Growth Inhibition Assay (SRB Assay)
BT-474 human breast cancer cell lines were kindly provided by Dr. Changnian Liu, Pharmaron Beijing Co., Ltd.
BT-474 cells were cultured in 37° C., 5% CO2, saturated humidity until logarithmic phase. Discarded culture medium, washed cells once by PBS. Added 1 ml Trypsin/EDTA solution, stood at 37° C. for 5 min, allowed the cells to detach. Added culture medium, adjusted the cells density to 1×10^5 cells/ml.
Day 0, added 100 μl/well cells suspension to 96-well cell culture plates. Incubated overnight to let the cells attach completely.
Day 1, compounds (2 mM in DMSO as stock solution) was diluted to 20 μM in EMEM. Then a fourfold serial dilution was made. These diluted compounds were made as 10× reaction solutions, and the concentration of DMSO was kept at 1%.
Added 80 μl culture medium and 20 μl 10× compound reaction solution to the testing wells, or vehicle control to the control wells. Co-incubated cells with compounds for another 72 h.
Day 3, fixed cellular protein by the addition of 100 μl/well of 10% TCA (diluting from 50% TCA) at 4° C. for 1 h. Rinsed TCA using plate washer, and washed five times using distilled water. Removed the residual wash solution with a piece of absorbent paper. Added 100 μl/well 0.4% SRB solution, allowed a 15-30 min staining period. Removed the SRB, and washed the culture plates five times using 1% acetic acid. Removed the residual wash solution with a piece of absorbent paper. Air-dried the culture plates, dissolved the protein-bound dye with 100 μl/well of 10 mM Tris base solution. Shook the plates until the dye was dissolved completely.

`CCOc1cc2ncc(C#N)c(Nc3ccc(OCc4cccc(F)c4)c(Cl)c3)c2cc1NC(=O)C=C1CCNCC1` [Example 145, N-(4-(4-(3-fluorobenzyloxy)-3-chlorophenylamino)-3-cyano-7-ethoxyquinolin-6-yl)-2-(piperidin-4-ylidene)acetamide]: in experiment [1], the EC50 – broadly, the concentration giving half of the maximal effect – turned out to be 3.4 µM and the inhibition – broadly, the drop in the measured response relative to a control, in per cent – at 3 µM worked out at 49%. The inhibition at 3 µM in experiment [2] was found to be 80%.
For the compound `COc1cc2ncc(C#N)c(Nc3ccc(Oc4cccc(F)c4)c(Cl)c3)c2cc1NC(=O)C=C1CCNCC1` [Example 146, N-(4-(3-chloro-4-(3-fluorophenoxy)phenylamino)-3-cyano-7-methoxyquinolin-6-yl)-2-(piperidin-4-ylidene)acetamide], the inhibition at 3 µM in experiment [1] was 52%; in experiment [2], 85%.
As for `COCCOc1cc2ncc(C#N)c(Nc3ccc(F)c(Cl)c3)c2cc1NC(=O)C=C1CCNCC1` [Example 149, N-(4-(3-chloro-4-fluorophenylamino)-3-cyano-7-(2-methoxyethoxy)quinolin-6-yl)-2-(piperidin-4-ylidene)acetamide], the inhibition at 3 µM was determined as 92% in experiment [1] and 53% in experiment [2].
As to `C#Cc1cccc(Nc2c(C#N)cnc3cc(OCC)c(NC(=O)C=C4CCNCC4)cc23)c1` [Example 152, N-(3-cyano-7-ethoxy-4-(3-ethynylphenylamino)quinolin-6-yl)-2-(piperidin-4-ylidene)acetamide], in experiment [1], the EC50 stood at 0.14 µM and the inhibition at 3 µM is 95%. Further, in experiment [2], the inhibition at 3 µM worked out at 59%.
Consider `COc1cc2ncc(C#N)c(Nc3cccc(Br)c3)c2cc1NC(=O)C=C1CCNCC1` [Example 155, N-(4-(3-bromophenylamino)-3-cyano-7-methoxyquinolin-6-yl)-2-(piperidin-4-ylidene)acetamide], for which the inhibition at 3 µM in experiment [1] came to 90%; in experiment [2], 58%.
Taken in the same sequence, the figures for `CCOc1cc2ncc(C#N)c(Nc3ccc(F)c(Cl)c3)c2cc1NC(=O)C=C1CCN(C)CC1` [Example 156, N-(4-(3-chloro-4-fluorophenylamino)-3-cyano-7-ethoxyquinolin-6-yl)-2-(1-methylpiperidin-4-ylidene)acetamide] were 89% and 60%.
Taken in the same sequence, the figures for `CCOc1cc2ncc(C#N)c(Nc3ccc(F)c(Cl)c3)c2cc1NC(=O)C=C1CCN(CCOC)CC1` [Example 157, N-(4-(3-chloro-4-fluorophenylamino)-3-cyano-7-ethoxyquinolin-6-yl)-2-(1-(2-methoxyethyl)piperidin-4-ylidene)acetamide] were 85% and 59%.
The like results for `C#Cc1cccc(Nc2c(C#N)cnc3cc(OCC)c(NC(=O)C=C4CCN(C)CC4)cc23)c1` [Example 158, N-(3-cyano-7-ethoxy-4-(3-ethynylphenylamino)quinolin-6-yl)-2-(1-methylpiperidin-4-ylidene)acetamide] were, in that order, 90% and 57%.
As for `C#Cc1cccc(Nc2c(C#N)cnc3cc(OCC)c(NC(=O)C=C4CCN(CCOC)CC4)cc23)c1` [Example 159, N-(3-cyano-7-ethoxy-4-(3-ethynylphenylamino)quinolin-6-yl)-2-(1-(2-methoxyethyl)piperidin-4-ylidene)acetamide], the inhibition at 3 µM stood at 83% in experiment [1] and 53% in experiment [2].
With `CCOc1cc2ncc(C#N)c(Nc3ccc(OCc4ccccn4)c(Cl)c3)c2cc1NC(=O)C=C1CCN(CCOC)CC1` [Example 161, N-(4-(3-chloro-4-(pyridin-2-ylmethoxy)phenylamino)-3-cyano-7-ethoxyquinolin-6-yl)-2-(1-(2-methoxyethyl)piperidin-4-ylidene)acetamide], the inhibition at 3 µM in experiment [1] was 49%; in experiment [2], 90%.
`COc1cc2ncc(C#N)c(Nc3ccc(OCc4ccccn4)c(Cl)c3)c2cc1NC(=O)C=C1CCN(C)CC1` [Example 197, N-(4-(3-chloro-4-(pyridin-2-ylmethoxy)phenylamino)-3-cyano-7-methoxyquinolin-6-yl)-2-(1-methylpiperidin-4-ylidene)acetamide]: the inhibition at 3 µM in experiment [2] amounted to 82%.
Consider `COCCN1CCC(=CC(=O)Nc2cc3c(Nc4ccc(OCc5ccccn5)c(Cl)c4)c(C#N)cnc3cc2OC)CC1` [Example 198, N-(4-(3-chloro-4-(pyridin-2-ylmethoxy)phenylamino)-3-cyano-7-methoxyquinolin-6-yl)-2-(1-(2-methoxyethyl)piperidin-4-ylidene)acetamide], for which the inhibition at 3 µM in experiment [2] came out at 86%.
With `CCOc1cc2ncc(C#N)c(Nc3ccc(OCc4ccccn4)c(Cl)c3)c2cc1NC(=O)C=C1CCN(CC)CC1` [Example 199, N-(4-(3-chloro-4-(pyridin-2-ylmethoxy)phenylamino)-3-cyano-7-ethoxyquinolin-6-yl)-2-(1-ethylpiperidin-4-ylidene)acetamide], the inhibition at 3 µM in experiment [2] stood at 87%.
Take `COCCOc1cc2ncc(C#N)c(Nc3ccc(OCc4ccccn4)c(Cl)c3)c2cc1NC(=O)C=C1CCN(C)CC1` [Example 200, N-(4-(3-chloro-4-(pyridin-2-ylmethoxy)phenylamino)-3-cyano-7-(2-methoxyethoxy)quinolin-6-yl)-2-(1-methylpiperidin-4-ylidene)acetamide]: the inhibition at 3 µM in experiment [2] amounted to 90%.
On the same count and under the same terms, as for `CCN1CCC(=CC(=O)Nc2cc3c(Nc4ccc(OCc5ccccn5)c(Cl)c4)c(C#N)cnc3cc2OCCOC)CC1` [Example 201, N-(4-(3-chloro-4-(pyridin-2-ylmethoxy)phenylamino)-3-cyano-7-(2-methoxyethoxy)quinolin-6-yl)-2-(1-ethylpiperidin-4-ylidene)acetamide], the figure is 89%; as for `CCCN1CCC(=CC(=O)Nc2cc3c(Nc4ccc(OCc5ccccn5)c(Cl)c4)c(C#N)cnc3cc2OCCOC)CC1` [Example 202, N-(4-(3-chloro-4-(pyridin-2-ylmethoxy)phenylamino)-3-cyano-7-(2-methoxyethoxy)quinolin-6-yl)-2-(1-propylpiperidin-4-ylidene)acetamide], 92%; as for `CCOc1cc2ncc(C#N)c(Nc3ccc(OCc4cccc(F)c4)c(Cl)c3)c2cc1NC(=O)C=C1CCN(CC)CC1` [Example 206, N-(4-(4-(3-fluorobenzyloxy)-3-chlorophenylamino)-3-cyano-7-ethoxyquinolin-6-yl)-2-(1-ethylpiperidin-4-ylidene)acetamide], 80%.
For the compound `COCCOc1cc2ncc(C#N)c(Nc3ccc(OCc4cccc(F)c4)c(Cl)c3)c2cc1NC(=O)C=C1CCN(C)CC1` [Example 208, N-(4-(4-(3-fluorobenzyloxy)-3-chlorophenylamino)-3-cyano-7-(2-methoxyethoxy)quinolin-6-yl)-2-(1-methylpiperidin-4-ylidene)acetamide], the inhibition at 3 µM in experiment [2] was 83%.
Same read-out and setting: as for `CCN1CCC(=CC(=O)Nc2cc3c(Nc4ccc(OCc5cccc(F)c5)c(Cl)c4)c(C#N)cnc3cc2OCCOC)CC1` [Example 209, N-(4-(4-(3-fluorobenzyloxy)-3-chlorophenylamino)-3-cyano-7-(2-methoxyethoxy)quinolin-6-yl)-2-(1-ethylpiperidin-4-ylidene)acetamide], the figure is 78%; as for `COCCOc1cc2ncc(C#N)c(Nc3ccc(OCc4cccc(F)c4)c(Cl)c3)c2cc1NC(=O)C=C1CCN(CCOC)CC1` [Example 211, N-(4-(4-(3-fluorobenzyloxy)-3-chlorophenylamino)-3-cyano-7-(2-methoxyethoxy)quinolin-6-yl)-2-(1-(2-methoxyethyl)piperidin-4-ylidene)acetamide], 81%.

The record behind these values is patent US8765946B2, “Methods of preparing and using quinazoline and quinoline derivatives” (priority 2006, dated 2014).
